{"source": "patent US11969448B2", "about": "“Method for improving an effect of chemotherapeutic drug of gemcitabine on inhibiting pancreatic cancer and improving side effect of chemotherapeutic drug of Gemcitabine” (GENMONT BIOTECH INC., priority 2020, dated 2024)", "key": {"[1]": {"test": "Side effects of Gemcitabine: body and muscle weight, serum biochemical and blood cell analysis in KC mice", "format": "in vivo", "source_text": "In the experiment, a 12-week-old LSL-Kras^G12D/−-Pdx-1-Cre (KC) gene transgenic mouse was used to simulate a mouse model of pancreatic cancer. The national laboratory animal center of National Applied Research Laboratories was entrusted to introduce the experimental animals from the Frederick National Laboratory for cancer research, and then conduct breeding, reproducing and embryo freezing, and then the experimental animals are bred in the animal center attached to Chung Shan Medical University in Taichung. The environment for feeding animals is controlled at a room temperature (20 to 23° C.) and in a humidity of 50 to 60%, and the light cycles of day and night are maintained for 12 hours respectively. Experimental animals are allowed to eat and drink freely. All animal experiment procedures were carried out in accordance with the protocol approved by institutional animal care and use committee (IACUC) of Chung Shan Medical University.\nIn order to induce acute pancreatitis in mice, Caerulein (25 μg/kg/h) were injected into the abdominal cavity of the mice by intraperitoneal (IP) injection every 7 hours 3 days before and 1 day before the experiment. The experimental mice were was divided into 4 groups. The chemotherapeutic drug of Gemcitabine was given with different concentrations (20, 50, 100, 200 mg/kg of body weight), and was administered by intraperitoneal injection for 4 consecutive weeks, once every 3 days, 10 times in total.\nTwo strains of the Lactobacillus paracasei GMNL-133 and the Lactobacillus reuteri GMNL-89 were used in the experiment, respectively with the ratio of 1:0.1 (1.64×10^7 CFU/0.02 kg of body weight: 1.64×10^6 CFU/0.02 kg of body weight) and the ratio of 1:1 (1.64×10^7 CFU/0.02 kg of body weight: 1.64×10^7 CFU/0.02 kg of body weight). The dosage used is based on that 12.3 times the recommended daily intake per kilogram of body weight for humans is 1 time the dose for mice. The probiotic composition was fed into the stomach of the mice by tube feeding, 5 days a week, once a day, 0.2 mL each time.\nIn order to study the adverse effects of the Caerulein, the chemotherapeutic drug of the Gemcitabine, and probiotic composition on serum biochemistry and blood cells, blood was collected after cardiac puncture in anesthetized mice, and the blood was immediately sent to Axel Biotechnology Inc. (Taichung) to perform blood tests and serum biochemical analysis."}, "[2]": {"system": "Caerulein-treated LSL-KrasG12D/−-Pdx-1-Cre (KC) gene transgenic mice (pancreatic intraepithelial neoplasia lesions)", "test": "Histological staining (H&E, vimentin and Ki67 immunohistochemistry) of the pancreas in the mouse model of pancreatic cancer", "format": "in vivo", "conditions": "FIG. 3", "excerpt": "After the mice were sacrificed, the pancreas tissue was collected, fixed with formalin solution (TONYAR biotech. Inc., Taiwan), embedded in paraffin, tissue sectioned, and then subjected to H&E staining and immunohistochemical staining. […]"}, "[3]": {"system": "BXPC-3 pancreatic cancer cells", "test": "MTT test, Experiment 2: BXPC-3 cells treated with probiotic lysates combined with Gemcitabine", "format": "cell-based", "conditions": "Gemcitabine 10 ng/mL alone; cultured 0 to 6 days; FIG. 7A", "method": "2500 BXPC-3 pancreatic cancer cells were seeded into each well of a 96-well plate, and the 96-well plate was incubated at 37° C. overnight. After the old cell culture medium was aspirated, the fresh culture medium containing the lysate of the Lactobacillus reuteri GMNL-89, the lysate of the Lactobacillus paracasei GMNL-133 (25 ug/mL of concentration), or the lysate of the Lactobacillus reuteri GMNL-89 and the Lactobacillus paracasei GMNL-133 (i.e., the probiotic composition of the present disclosure) were respectively mixed with the fresh culture medium containing the chemotherapeutic drug of Gemcitabine (10 ng/mL of concentration) to be added to the BXPC-3 pancreatic cancer cells. Then, the BXPC-3 pancreatic cancer cells were cultured for 0 to 6 days. At different time points, based on day 0, the cell viability rate was determined by the MTT test, and the cell viability rate at different time points was calculated."}, "[4]": {"system": "advanced pancreatic cancer", "conditions": "first-line chemotherapy for advanced pancreatic cancer; background statement; cited from earlier work"}, "[5]": {"conditions": "Caerulein-treated KC mice, Gemcitabine 200 mg/kg alone"}, "[6]": {"conditions": "Gemcitabine 20, 50, 100, 200 mg/kg IP alone, compared with untreated mice"}}, "data": [{"smiles": "Nc1ccn([C@@H]2O[C@H](CO)[C@@H](O)C2(F)F)c(=O)n1", "note": "[Gemcitabine]", "values": [{"measurement": "ALT", "setting": "[1]; [5]", "result": 60, "unit": "U/L"}, {"measurement": "AST", "setting": "[1]; [5]", "result": 351, "unit": "U/L"}, {"measurement": "Body weight", "setting": "[1]; [5]", "result": "21.10 ± 1.44", "unit": "g"}, {"measurement": "Gastrocnemius muscle weight", "setting": "[1]; [5]", "result": "0.13 ± 0.00", "unit": "g"}, {"measurement": "Platelets", "setting": "[1]; [5]", "result": 1222.00, "unit": "K/μL"}, {"measurement": "Red blood cell", "setting": "[1]; [5]", "result": 8.70, "unit": "M/μL"}, {"measurement": "White blood cell", "setting": "[1]; [5]", "result": 3.04, "unit": "K/μL"}, {"measurement": "body weight and muscle (gastrocnemius) weight", "setting": "[1]; KC mice treated with Caerulein (25 μg/kg), Gemcitabine alone", "result": "lose weight and muscle (gastrocnemius) weight significantly"}, {"measurement": "liver function index of AST and ALT", "setting": "[1]; KC mice treated with Caerulein (25 μg/kg), only Gemcitabine", "result": "prone to elevate"}, {"measurement": "tissue staining results at the two high doses", "setting": "[2]; Gemcitabine 100 mg/kg and 200 mg/kg", "result": "excellent results"}, {"measurement": "expressions of the vimentin and the cell proliferation marker of Ki67", "setting": "[2]; [6]", "result": "also lower"}, {"measurement": "pancreatic intraepithelial neoplasia lesion grades (H&E staining)", "setting": "[2]; [6]", "result": "lower than those of the untreated mice"}, {"measurement": "cell viability rate (time of lowest value)", "setting": "[3]", "result": "reached the lowest on the sixth day"}, {"measurement": "death of BXPC-3 pancreatic cancer cells (onset)", "setting": "[3]", "result": "caused the death of the BXPC-3 pancreatic cancer cells from the second day"}, {"measurement": "5-year survival rate of patients", "setting": "[4]", "result": 30, "unit": "%"}]}]}
